Like-named read-outs stand apart in the source and are kept apart here.
Legend:
CEM-SS cells = test: cells; type: cell-based; conditions: for IC50: 50% cytotoxicity, read-out: IC50
Experimental: Agents Chemother. […] Briefly, cells are infected with HIV-1 RF (or other virus to be tested) in the presence of various dilutions of test compounds (thiolesters and controls). The cultures are incubated for seven days. […] The cell death is measured by XTT dye reduction. XTT is a soluble tetrazolium dye that measures mitochondrial energy output, similar to MTT. Positive controls using dextran sulfate (an attachment inhibitor) or 3′-Azido-2′-3′-dideoxythymidine, AZT (a reverse transcriptase inhibitor) are added to each assay. Individual assays are done in duplicate using a sister plate method.

[1] = molecular target: T1, recombinant HIV-1 protease (Human immunodeficiency virus type 1 group M subtype B, UniProt P03366); test: HIV-1 protease substrate cleavage (HPLC) assay; type: biochemical
T1 construct: recombinant HIV-1 protease
Experimental: The 5-bromovaleroyl thioester, compound 44, and two 5-pyridiniovaleroyl thioesters, compounds 45and 47, were analyzed in mechanistic and target-based assays. […] Assays for activity against HIV-1 reverse transcriptase rAdT (template/primer) and rCdG (template/primer) using recombinant HIV-1 reverse transcriptase (S. Hughes, ABL Basic Research NCI-FCRDC, Frederick Md.) were performed as described by Rice (1997) supra. Substrate cleavage of recombinant HIV-1 protease in the presence of test compounds using an HPLC-based methodology with the artificial substrate Ala-Ser-Glu-Asn-Try-Pro-Ile-Val-amide (Multiple Peptide Systems, San Diego Calif.) was performed as described by Rice (1997) supra. The ability of recombinant HIV-1 integrase (S. Hughes, ABL Basic Research NCI-FCRDC, Frederick Md.) to carry out 3′ processing and strand transfer activities in the presence of test compounds was performed as described by Buckheit (1994) AIDS Res. Hum. Retroviruses 10:1497-1506, and Turpin (1998) Antimicrob. Agents Chemother. 42: 487-494.

virus attachment = test: cell-based p24 attachment assay; design: species or system HIV-1
Experimental: (§1) The cell-based p24 attachment assay was performed as described in Rice (1995) Science 270:1194-1197. Viral inactivation assays were carried out as described in Rice (1995) Science 270:1194-1197, and Turpin (1997) supra, with minor modifications. Briefly, MAGI-CCR-5 cells were plated (4×10^4 cells per well) in flat bottomed 2-cm well plates for 24 h, after which the culture media was removed and compound-treated virus was added. The virus used was obtained by transient transfection of pNL4-3 into HeLa cells yielding the replication competent NL4-3 virus. Virus containing supernatants were treated for 2 h at 37° C. after which residual compound was removed by centrifugation (18,000×g, 1 h, 4° C.). Virus pellets were resuspended and placed on the MAGI-CCR-5 monolayers and cultured for 48 h. Monolayers were fixed and stained with X-gal solution and blue cells counted.

Sp1 = molecular target: T2, Sp1 (Homo sapiens, UniProt P08047); test: Sp1 super gel shift EMSA (K562 cell nuclear extracts); type: biochemical; conditions: specificity for CCHC vs CCHH zinc finger
T2 construct: treatment of K562 cell nuclear extracts with the compounds; host or cells: K562 cell nuclear extracts
T2 sequence (P08047 whole entry): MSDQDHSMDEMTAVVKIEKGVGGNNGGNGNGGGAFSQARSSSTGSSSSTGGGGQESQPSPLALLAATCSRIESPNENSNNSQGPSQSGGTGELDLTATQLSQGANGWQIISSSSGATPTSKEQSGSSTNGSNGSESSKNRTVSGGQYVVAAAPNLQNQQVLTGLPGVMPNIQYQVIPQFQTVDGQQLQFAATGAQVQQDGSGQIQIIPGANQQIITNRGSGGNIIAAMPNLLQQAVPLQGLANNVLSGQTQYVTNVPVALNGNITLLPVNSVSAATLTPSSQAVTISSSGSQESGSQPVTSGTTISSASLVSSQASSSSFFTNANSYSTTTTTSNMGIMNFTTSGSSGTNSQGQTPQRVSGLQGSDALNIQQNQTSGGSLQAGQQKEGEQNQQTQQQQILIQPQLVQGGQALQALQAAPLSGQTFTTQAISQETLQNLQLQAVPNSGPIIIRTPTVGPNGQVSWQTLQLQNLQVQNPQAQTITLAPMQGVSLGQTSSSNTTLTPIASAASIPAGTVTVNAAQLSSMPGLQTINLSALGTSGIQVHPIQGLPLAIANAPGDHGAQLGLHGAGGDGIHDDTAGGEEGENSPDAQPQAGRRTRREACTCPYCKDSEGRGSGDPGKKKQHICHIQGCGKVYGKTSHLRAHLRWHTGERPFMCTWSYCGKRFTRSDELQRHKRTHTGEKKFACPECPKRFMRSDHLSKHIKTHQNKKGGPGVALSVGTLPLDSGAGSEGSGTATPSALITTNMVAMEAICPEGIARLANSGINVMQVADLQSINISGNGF
Experimental: To determine if compound 44, 45 or 47 binding activity was specific for CCHC zinc fingers, a super gel shift EMSA after treatment of K562 cell nuclear extracts with the compounds was performed. This was followed by super shifting with Sp1-specific antibody. Sp1 was chosen because it is a cellular transcription factor that contains three copies of a classical type CCHH zinc finger motif that are required for Sp1 binding to its DNA target. […] Super gel shifting to determine the specificity of zinc finger reactive compounds was carried out using an Sp1 consensus oligomer (Stratagene, La Jolla, Calif.), K562 cell nuclear extracts, and antibodies for Sp1 (Sp1[PEP2]-G) (extracts and Sp1 Abs from Santa Cruz Biotechnology, Inc., Santa Cruz, Calif.). The binding reactions of oligonucleotides with K562 nuclear extract, as well as electrophoretic conditions were carried out as described in the Gelshift Buffer Kit, Stratagene , La Jolla, Calif.

HIV-1NL4-3 = test: Virucidal (viral inactivation) assay on MAGI-CCR-5 cells; type: cell-based
Experimental: as §1
NCp7 cross-linking is associated with viral inactivation. Whether the ability to crosslink the nucleocapsid protein, as determined by Western blotting, correlated with the ability to inactivate the viruses was tested in a virucidal assay. Virus stocks of HIV-1NL4-3 were incubated with various thiolester compounds. The virus was obtained by transient transfection of a replication-competent pNL4-3 plasmid into HeLa cells. Residual thiolester was removed by centrifugation. […]

HIV-1RF = test: XTT cytoprotection assay (antiviral activity); type: cell-based
Source text: One exemplary means to determine antiviral activity is with CEM-SS cells and virus (e.g., HIV-1RF) (MOI=0.01) using the XTT (2,3-bis[2-methoxy-4-nitro-5-sulfophenyl]-5-[(phenylamino)carbonyl]-2H-tetrazolium hydroxide) cytoprotection assay, as described by Rice (1993) PNAS 90:9721-9724, and Rice (1997) Antimicrob. Agents Chemother. 41:419-426. Briefly, cells are infected with HIV-1 RF (or other virus to be tested) in the presence of various dilutions of test compounds (thiolesters and controls). The cultures are incubated for seven days. During this time control cultures without protective compounds (i.e., compounds with anti-viral activity) replicate virus, induce syncytia, and result in about 90% cell death. The cell death is measured by XTT dye reduction. XTT is a soluble tetrazolium dye that measures mitochondrial energy output, similar to MTT. Positive controls using dextran sulfate (an attachment inhibitor) or 3′-Azido-2′-3′-dideoxythymidine, AZT (a reverse transcriptase inhibitor) are added to each assay. Individual assays are done in duplicate using a sister plate method.
Effective antiviral concentrations providing 50% cytoprotection (EC50), and cellular growth inhibitory concentrations causing 50% cytotoxicity (IC50) are calculated.

[2] = Human immunodeficiency virus 1, Table 7, high dose test 100 μM, read-out: Attachment I50

Compound	IC50 (CEM-SS cells; Table 5)	inhibition of HIV-1 protease (in words) [1]	inhibition of virus attachment (in words) (virus attachment)	IC50 (virus attachment; [2])	effect on super shifting of Sp1 bound to its DNA target (Sp1)	IC50 (CEM-SS cells; Table 10)	cellular toxicity (in words) (CEM-SS cells; high test dose of 316 μM)	IC50 [1]	IC50 (virus attachment; Human immunodeficiency virus 1, read-out: Attachment I50)	potency at inactivating virus vs compounds 44 and 45 (HIV-1NL4-3)	antiviral activity (in words) (HIV-1RF)	EC50 (HIV-1RF; Human immunodeficiency virus 1, Table 6, read-out: EC50 %)	IC50 (CEM-SS cells; Homo sapiens, CEM-SS, Table 6)	virucidal activity (in words) (HIV-1NL4-3)
CC(=O)NS(=O)(=O)c1ccc(NC(=O)c2ccccc2SC(=O)CCCCBr)cc1 [Compound 44, N-[2-(5-bromovaleroylthio)benzoyl]sulfacetamide]	184.5 µM	did not inhibit	did not inhibit	> 100 µM	failed to alter the pattern of super shifting of Sp1	–	–	–	–	–	–	–	–	–
CC(=O)NS(=O)(=O)c1ccc(NC(=O)c2ccccc2SC(=O)CCCC[n+]2ccccc2)cc1 [Compound 45, N-[2-(5-pyridinio-valeroylthio)benzoyl]sulfacetamide bromide]	>316 µM	did not inhibit	did not inhibit	> 100 µM	failed to alter the pattern of super shifting of Sp1	>316 µM	no toxicity	–	–	–	–	–	–	–
O=C(CCCC[n+]1ccccc1)Sc1ccccc1C(=O)Nc1ccc(S(=O)(=O)c2ccc([N+](=O)[O-])cc2)cc1 [Compound 47]	–	did not inhibit	did not inhibit	–	failed to alter the pattern of super shifting of Sp1	–	–	> 100 µM	> 100 µM	approximately 6 fold	–	–	–	–
O=C(O)CCCC[n+]1ccccc1.[Br-] [Compound 53, 5-pyridiniovaleric acid]	–	–	–	–	–	–	–	–	–	–	without antiviral activity	> 316 µM	> 316 µM	Neither intravirion cross-linkage of NCp7 nor virucidal activity were detected

From patent publication US7625917B2, “Thiolesters and uses thereof” (priority 1998, dated 2009)
